Measurements published in PubChem BioAssay (NCI).
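Results reflect a 48-hour exposure of cells in 96-well plates to compound at five concentrations. GI50 = concentration required for 50% inhibition of growth. At the TGI there is no net growth.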

Columns and labels:
Assay in all cases: DTP human tumour cell line panel, 48 h
[1] = tested on: T-47D breast
[2] = tested on: OVCAR-5 ovarian
[3] = tested on: IGROV1 ovarian
[4] = tested on: NCI-H460 lung
[5] = tested on: SNB-75 CNS
[6] = tested on: NCI-H226 lung
[7] = tested on: UO-31 renal
[8] = tested on: SK-OV-3 ovarian
[9] = tested on: SW-620 colon
[10] = tested on: CCRF-CEM leukemia
[11] = tested on: 786-0 renal
[12] = tested on: K-562 leukemia
[13] = tested on: MALME-3M melanoma
[14] = tested on: PC-3 prostate
[15] = tested on: SR leukemia
[16] = tested on: OVCAR-3 ovarian
[17] = tested on: MCF7 breast
[18] = tested on: NCI-H522 lung
[19] = tested on: TK-10 renal
[20] = tested on: CAKI-1 renal
[21] = tested on: EKVX NSCLC
[22] = tested on: UACC-257 melanoma
[23] = tested on: SN12C renal
[24] = tested on: MDA-MB-231 breast
[25] = tested on: NCI/ADR-RES ovarian
[26] = tested on: SNB-19 CNS
[27] = tested on: COLO 205 colon
[28] = tested on: HOP-62 NSCLC
[29] = tested on: HL-60(TB) leukemia
[30] = tested on: A498 renal
[31] = tested on: MDA-MB-468 breast
[32] = tested on: HOP-92 NSCLC
[33] = tested on: SF-539 CNS
[34] = tested on: HCC-2998 colon
[35] = tested on: U251 CNS
[36] = tested on: SK-MEL-2 melanoma
[37] = tested on: SF-295 CNS
[38] = tested on: OVCAR-4 ovarian
[39] = tested on: UACC-62 melanoma
[40] = tested on: RPMI-8226 leukemia
[41] = tested on: KM12 colon
[42] = tested on: DU-145 prostate
[43] = tested on: RXF 393 renal
[44] = tested on: A549 NSCLC
[45] = tested on: NCI-H23 lung
[46] = tested on: SF-268 CNS
[47] = tested on: HT29 colon
[48] = tested on: HS 578T breast
[49] = tested on: LOX IMVI melanoma
[50] = tested on: MDA-MB-435
[51] = tested on: OVCAR-8 ovarian
[52] = tested on: BT-549 breast
[53] = tested on: M14 melanoma
[54] = tested on: HCT-15 colon
[55] = tested on: HCT-116 colon
[56] = tested on: MOLT-4 leukemia
[57] = tested on: SK-MEL-5 melanoma
[58] = tested on: ACHN renal
[59] = tested on: SK-MEL-28 melanoma

O=C1Nc2cc(-c3ccc(NS(=O)(=O)c4ccc(C(F)(F)F)cc4)cc3)ccc2/C1=C/c1ccc[nH]1
GI50 [1]: 0.23 µM
TGI [1]: 3.86 µM
GI50 [2]: 1.8 µM
TGI [2]: 7.06 µM
GI50 [3]: 3.31 µM
TGI [3]: 15 µM
GI50 [4]: 0.437 µM
TGI [4]: 1.77 µM
GI50 [5]: 2.29 µM
TGI [5]: 13.3 µM
GI50 [6]: 1.1 µM
TGI [6]: 6.79 µM
GI50 [7]: 1.51 µM
TGI [7]: 10.3 µM
GI50 [8]: 2.2 µM
TGI [8]: 11.6 µM
GI50 [9]: 1.87 µM
TGI [9]: 3.68 µM
GI50 [10]: 2.27 µM
TGI [10]: 6.82 µM
GI50 [11]: 2.55 µM
TGI [11]: 6.54 µM
GI50 [12]: 2.48 µM
TGI [12]: 11 µM
GI50 [13]: 3.05 µM
TGI [13]: 13.6 µM
GI50 [14]: 1.57 µM
TGI [14]: 4.83 µM
GI50 [15]: 1.97 µM
TGI [15]: 7 µM
GI50 [16]: 1.43 µM
TGI [16]: 2.92 µM
GI50 [17]: 0.0818 µM
TGI [17]: 1.47 µM
GI50 [18]: 1.44 µM
TGI [18]: 3.32 µM
GI50 [19]: 1.27 µM
TGI [19]: 6.71 µM
GI50 [20]: 2.57 µM
TGI [20]: 11.1 µM
GI50 [21]: 0.123 µM
TGI [21]: 4.13 µM
GI50 [22]: 2.39 µM
TGI [22]: 7.33 µM
GI50 [23]: 1.59 µM
TGI [23]: 3.17 µM
GI50 [24]: 2.28 µM
TGI [24]: 8.29 µM
GI50 [25]: 2.59 µM
TGI [25]: 8.6 µM
GI50 [26]: 2.53 µM
TGI [26]: 11.3 µM
GI50 [27]: 2.42 µM
TGI [27]: 8.25 µM
GI50 [28]: 1.66 µM
TGI [28]: 4.7 µM
GI50 [29]: 2.9 µM
TGI [29]: 10.7 µM
GI50 [30]: 1.99 µM
TGI [30]: 7.78 µM
GI50 [31]: 0.0311 µM
TGI [31]: 0.309 µM
GI50 [32]: 1.1 µM
TGI [32]: 3.79 µM
GI50 [33]: 1.43 µM
TGI [33]: 3.26 µM
GI50 [34]: 1.91 µM
TGI [34]: 4.92 µM
GI50 [35]: 1.61 µM
TGI [35]: 3.12 µM
GI50 [36]: 3.14 µM
TGI [36]: 12.2 µM
GI50 [37]: 2.04 µM
TGI [37]: 4.67 µM
GI50 [38]: 1.1 µM
TGI [38]: 7.33 µM
GI50 [39]: 2.13 µM
TGI [39]: 9.73 µM
GI50 [40]: 1.33 µM
TGI [40]: 4.25 µM
GI50 [41]: 1.94 µM
TGI [41]: 7.83 µM
GI50 [42]: 1.87 µM
TGI [42]: 4 µM
GI50 [43]: 1.96 µM
TGI [43]: 4.37 µM
GI50 [44]: 1.31 µM
TGI [44]: 2.92 µM
GI50 [45]: 1.07 µM
TGI [45]: 2.83 µM
GI50 [46]: 1.72 µM
TGI [46]: 3.86 µM
GI50 [47]: 2.21 µM
TGI [47]: 5.14 µM
GI50 [48]: 1.96 µM
TGI [48]: 10.3 µM
GI50 [49]: 1.63 µM
TGI [49]: 2.98 µM
GI50 [50]: 1.86 µM
TGI [50]: 3.95 µM
GI50 [51]: 1.91 µM
TGI [51]: 4.07 µM
GI50 [52]: 1.96 µM
TGI [52]: 5.54 µM
GI50 [53]: 3.11 µM
TGI [53]: 13 µM
GI50 [54]: 1.42 µM
TGI [54]: 3.26 µM
GI50 [55]: 1.82 µM
TGI [55]: 3.46 µM
GI50 [56]: 2.49 µM
TGI [56]: 10.8 µM
GI50 [57]: 4.13 µM
TGI [57]: 15.6 µM
GI50 [58]: 2.19 µM
TGI [58]: 5.31 µM
GI50 [59]: 2.26 µM
TGI [59]: 5.68 µM

O=C1Nc2ccc(Cl)cc2/C1=C/c1ccc(OCc2ccc(Br)cc2F)cc1
GI50 [1]: 10.9 µM
TGI [1]: 30.8 µM
GI50 [2]: 13 µM
TGI [2]: 42.9 µM
GI50 [3]: 4.11 µM
TGI [3]: 15.5 µM
GI50 [4]: 2.1 µM
TGI [4]: 4.38 µM
GI50 [5]: 2 µM
TGI [5]: 7.32 µM
GI50 [6]: 2.66 µM
TGI [6]: 11.5 µM
GI50 [7]: 1.46 µM
TGI [7]: 6.65 µM
GI50 [8]: 4.2 µM
TGI [8]: 17.9 µM
GI50 [9]: 2.8 µM
TGI [9]: 10.3 µM
GI50 [10]: 4.55 µM
TGI [10]: 17.7 µM
GI50 [11]: 3.06 µM
TGI [11]: 8.32 µM
GI50 [12]: 3.87 µM
TGI [12]: 15.3 µM
GI50 [13]: 2.76 µM
TGI [13]: 9.8 µM
GI50 [14]: 3.79 µM
TGI [14]: 16.6 µM
GI50 [15]: 2.72 µM
TGI [15]: 9.16 µM
GI50 [16]: 3.28 µM
TGI [16]: 10.1 µM
GI50 [17]: 2.95 µM
TGI [17]: 14.2 µM
GI50 [18]: 3.31 µM
TGI [18]: 11.1 µM
GI50 [19]: 6.75 µM
TGI [19]: 22.9 µM
GI50 [20]: 2.05 µM
TGI [20]: 7.06 µM
GI50 [21]: 4.51 µM
TGI [21]: 22.1 µM
GI50 [22]: 13 µM
TGI [22]: 27.6 µM
GI50 [23]: 4.62 µM
TGI [23]: 18.7 µM
GI50 [24]: 3.21 µM
TGI [24]: 12.2 µM
GI50 [26]: 4.06 µM
TGI [26]: 15.7 µM
GI50 [27]: 9.18 µM
TGI [27]: 37.5 µM
GI50 [28]: 3.14 µM
TGI [28]: 11.7 µM
GI50 [29]: 10.9 µM
TGI [29]: 26.1 µM
GI50 [30]: 2.45 µM
TGI [30]: 5.42 µM
GI50 [31]: 8.46 µM
TGI [31]: 21.9 µM
GI50 [32]: 2.12 µM
TGI [32]: 6.91 µM
GI50 [33]: 6.32 µM
TGI [33]: 19.1 µM
GI50 [34]: 20.5 µM
TGI [34]: 65.7 µM
GI50 [35]: 2.03 µM
TGI [35]: 4.07 µM
GI50 [36]: 15.5 µM
TGI [36]: 30.1 µM
GI50 [37]: 3.24 µM
TGI [37]: 12.1 µM
GI50 [38]: 2.06 µM
TGI [38]: 4.67 µM
GI50 [39]: 3.72 µM
TGI [39]: 15.4 µM
GI50 [40]: 9.01 µM
TGI [40]: 24 µM
GI50 [41]: 8.56 µM
TGI [41]: 25.7 µM
GI50 [42]: 10.2 µM
TGI [42]: 26.6 µM
GI50 [43]: 4.73 µM
TGI [43]: 18.1 µM
GI50 [44]: 3.25 µM
TGI [44]: 11.3 µM
GI50 [45]: 2.98 µM
TGI [45]: 12.2 µM
GI50 [46]: 5.01 µM
TGI [46]: 17.7 µM
GI50 [47]: 12.9 µM
TGI [47]: 29.1 µM
GI50 [48]: 2.37 µM
TGI [48]: 6.69 µM
GI50 [49]: 2.88 µM
TGI [49]: 10 µM
GI50 [50]: 9.81 µM
TGI [50]: 22.2 µM
GI50 [51]: 3.74 µM
TGI [51]: 15.1 µM
GI50 [52]: 9.48 µM
TGI [52]: 26.8 µM
GI50 [53]: 4.97 µM
TGI [53]: 18.6 µM
GI50 [54]: 5.77 µM
TGI [54]: 21 µM
GI50 [55]: 3.13 µM
TGI [55]: 10.7 µM
GI50 [56]: 4.63 µM
TGI [56]: 19.2 µM
GI50 [57]: 10.8 µM
TGI [57]: 23.1 µM
GI50 [58]: 2.19 µM
TGI [58]: 5.29 µM
GI50 [59]: 5.42 µM
TGI [59]: 17.4 µM
